Test results: the supplement of paper PMC10307832

What was measured:
Assay in all cases: relative viability (nuclei count vs DMSO), 5 days (fraction); higher = more cells survive
[1] = test system: NCI-H1648
Procedure, shortened: (§1)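 The day after seeding in 1536-well plates, lung cancer cell lines were treated by pin tool with a single drug, or with a fixed anchor-drug dose together with five library-drug doses (not always all listed) in √10 steps. After 5 days, a combined fix-and-stain solution (final 0.05% Triton X-100, 1% formaldehyde, 1 ug/ml Hoechst) was added. Nuclei counted on 4× images gave relative viability as treated counts over vehicle counts, reported as the median of duplicate plates.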

[2] = test system: NCI-H1651
Procedure, shortened: as §1

[3] = test system: NCI-H1944
Procedure, shortened: as §1

[4] = test system: NCI-H520
Procedure, shortened: as §1

[5] = test system: NCI-H650
Procedure, shortened: as §1

[6] = test system: NCI-H838
Procedure, shortened: as §1

[7] = test system: PC-3 [JPC-3]
Procedure, shortened: as §1

[8] = test system: RERF-LC-KJ
Procedure, shortened: as §1

[9] = test system: A549
Procedure, shortened: as §1

Compound: Cc1sc2c(c1C)C(c1ccc(Cl)cc1)=N[C@@H](CC(=O)OC(C)(C)C)c1nnc(C)n1-2 [JQ1] + Nc1nc2[nH]cc(CCc3ccc(C(=O)N[C@@H](CCC(=O)O)C(=O)O)cc3)c2c(=O)[nH]1 [Pemetrexed] (partner 0.2 µM)
- relative viability ([1]; first compound 0.04 µM): 0.726
- relative viability ([1]; first compound 0.1265 µM): 0.817
- relative viability ([1]; first compound 0.4 µM): 0.683
- relative viability ([1]; first compound 1.265 µM): 0.54
- relative viability ([1]; first compound 4 µM): 0.258
- relative viability ([2]; first compound 0.04 µM): 0.589
- relative viability ([2]; first compound 0.1265 µM): 0.45
- relative viability ([2]; first compound 0.4 µM): 0.391
- relative viability ([2]; first compound 1.265 µM): 0.458
- relative viability ([2]; first compound 4 µM): 0.358
- relative viability ([3]; first compound 0.04 µM): 0.74
- relative viability ([3]; first compound 0.1265 µM): 0.565
- relative viability ([3]; first compound 0.4 µM): 0.466
- relative viability ([3]; first compound 1.265 µM): 0.446
- relative viability ([3]; first compound 4 µM): 0.438
- relative viability ([4]; first compound 0.04 µM): 0.565
- relative viability ([4]; first compound 0.1265 µM): 0.536
- relative viability ([4]; first compound 0.4 µM): 0.491
- relative viability ([4]; first compound 1.265 µM): 0.307
- relative viability ([4]; first compound 4 µM): 0.195
- relative viability ([5]; first compound 0.04 µM): 0.886
- relative viability ([5]; first compound 0.1265 µM): 0.664
- relative viability ([5]; first compound 0.4 µM): 0.839
- relative viability ([5]; first compound 1.265 µM): 0.6
- relative viability ([5]; first compound 4 µM): 0.276
- relative viability ([6]; first compound 0.04 µM): 0.24
- relative viability ([6]; first compound 0.1265 µM): 0.167
- relative viability ([6]; first compound 0.4 µM): 0.176
- relative viability ([6]; first compound 1.265 µM): 0.177
- relative viability ([6]; first compound 4 µM): 0.17
- relative viability ([7]; first compound 0.04 µM): 1.16
- relative viability ([7]; first compound 0.1265 µM): 1.12
- relative viability ([7]; first compound 0.4 µM): 0.818
- relative viability ([7]; first compound 1.265 µM): 0.751
- relative viability ([7]; first compound 4 µM): 0.374
- relative viability ([8]; first compound 0.04 µM): 0.487
- relative viability ([8]; first compound 0.1265 µM): 0.481
- relative viability ([8]; first compound 0.4 µM): 0.46
- relative viability ([8]; first compound 1.265 µM): 0.33
- relative viability ([8]; first compound 4 µM): 0.275

Compound: Cc1sc2c(c1C)C(c1ccc(Cl)cc1)=N[C@@H](CC(=O)OC(C)(C)C)c1nnc(C)n1-2 [JQ1] + Nc1ncn([C@H]2C[C@H](O)[C@@H](CO)O2)c(=O)n1 [Decitabine] (partner 2 µM)
- relative viability ([9]; first compound 0.04 µM): 0.275
- relative viability ([9]; first compound 0.1265 µM): 0.267
- relative viability ([9]; first compound 0.4 µM): 0.378
- relative viability ([9]; first compound 1.265 µM): 0.405
- relative viability ([9]; first compound 4 µM): 0.252
- relative viability ([1]; first compound 0.04 µM): 0.497
- relative viability ([1]; first compound 0.1265 µM): 0.652
- relative viability ([1]; first compound 0.4 µM): 0.409
- relative viability ([1]; first compound 1.265 µM): 0.398
- relative viability ([1]; first compound 4 µM): 0.286
- relative viability ([2]; first compound 0.04 µM): 0.651
- relative viability ([2]; first compound 0.1265 µM): 0.487
- relative viability ([2]; first compound 0.4 µM): 0.442
- relative viability ([2]; first compound 1.265 µM): 0.524
- relative viability ([2]; first compound 4 µM): 0.411
- relative viability ([3]; first compound 0.04 µM): 0.438
- relative viability ([3]; first compound 0.1265 µM): 0.405
- relative viability ([3]; first compound 0.4 µM): 0.409
- relative viability ([3]; first compound 1.265 µM): 0.335
- relative viability ([3]; first compound 4 µM): 0.313
- relative viability ([4]; first compound 0.04 µM): 0.52
- relative viability ([4]; first compound 0.1265 µM): 0.561
- relative viability ([4]; first compound 0.4 µM): 0.443
- relative viability ([4]; first compound 1.265 µM): 0.349
- relative viability ([4]; first compound 4 µM): 0.355
- relative viability ([5]; first compound 0.04 µM): 0.278
- relative viability ([5]; first compound 0.1265 µM): 0.305
- relative viability ([5]; first compound 0.4 µM): 0.316
- relative viability ([5]; first compound 1.265 µM): 0.251
- relative viability ([5]; first compound 4 µM): 0.249
- relative viability ([6]; first compound 0.04 µM): 0.458
- relative viability ([6]; first compound 0.1265 µM): 0.371
- relative viability ([6]; first compound 0.4 µM): 0.347
- relative viability ([6]; first compound 1.265 µM): 0.282
- relative viability ([6]; first compound 4 µM): 0.235
- relative viability ([7]; first compound 0.04 µM): 0.864
- relative viability ([7]; first compound 0.1265 µM): 0.796
- relative viability ([7]; first compound 0.4 µM): 0.778
- relative viability ([7]; first compound 1.265 µM): 0.509
- relative viability ([7]; first compound 4 µM): 0.561
- relative viability ([8]; first compound 0.04 µM): 0.648
- relative viability ([8]; first compound 0.1265 µM): 0.532
- relative viability ([8]; first compound 0.4 µM): 0.56
- relative viability ([8]; first compound 1.265 µM): 0.333
- relative viability ([8]; first compound 4 µM): 0.235

Compound: COc1cc2nccc(Oc3ccc(NC(=O)Nc4cc(C)on4)c(Cl)c3)c2cc1OC [Tivozanib] + CC(=O)Nc1cccc(-n2c(=O)n(C3CC3)c(=O)c3c(Nc4ccc(I)cc4F)n(C)c(=O)c(C)c32)c1 [Trametinib] (partner 0.02 µM)
- relative viability ([1]; first compound 0.005 µM): 0.478
- relative viability ([1]; first compound 0.01581 µM): 0.604
- relative viability ([1]; first compound 0.05 µM): 0.473
- relative viability ([1]; first compound 0.1581 µM): 0.442
- relative viability ([1]; first compound 0.5 µM): 0.429
- relative viability ([2]; first compound 0.005 µM): 0.816
- relative viability ([2]; first compound 0.01581 µM): 0.808
- relative viability ([2]; first compound 0.05 µM): 0.821
- relative viability ([2]; first compound 0.1581 µM): 0.866
- relative viability ([2]; first compound 0.5 µM): 0.828
- relative viability ([3]; first compound 0.005 µM): 0.344
- relative viability ([3]; first compound 0.01581 µM): 0.453
- relative viability ([3]; first compound 0.05 µM): 0.399
- relative viability ([3]; first compound 0.1581 µM): 0.423
- relative viability ([3]; first compound 0.5 µM): 0.455
- relative viability ([4]; first compound 0.005 µM): 0.658
- relative viability ([4]; first compound 0.01581 µM): 0.771
- relative viability ([4]; first compound 0.05 µM): 0.612
- relative viability ([4]; first compound 0.1581 µM): 0.475
- relative viability ([4]; first compound 0.5 µM): 0.646
- relative viability ([5]; first compound 0.005 µM): 0.942
- relative viability ([5]; first compound 0.01581 µM): 1.05
- relative viability ([5]; first compound 0.05 µM): 1.05
- relative viability ([5]; first compound 0.1581 µM): 0.97
- relative viability ([5]; first compound 0.5 µM): 0.909
- relative viability ([6]; first compound 0.005 µM): 0.514
- relative viability ([6]; first compound 0.01581 µM): 0.555
- relative viability ([6]; first compound 0.05 µM): 0.552
- relative viability ([6]; first compound 0.1581 µM): 0.34
- relative viability ([6]; first compound 0.5 µM): 0.504
- relative viability ([7]; first compound 0.01581 µM): 0.686
- relative viability ([7]; first compound 0.05 µM): 0.807
- relative viability ([7]; first compound 0.1581 µM): 0.674
- relative viability ([7]; first compound 0.5 µM): 0.811
- relative viability ([8]; first compound 0.005 µM): 0.758
- relative viability ([8]; first compound 0.01581 µM): 0.989
- relative viability ([8]; first compound 0.05 µM): 0.805
- relative viability ([8]; first compound 0.1581 µM): 0.859
- relative viability ([8]; first compound 0.5 µM): 0.805
